pKi: −log10 of the molar value.
These molecules were tested against human RIP1 kinase domain (2-375) (Homo sapiens (Human), UniProt Q13546) (assay: biochemical). Conditions: Table 1; apparent Ki (Morrison tight-binding fit); 50 nM RIP1 kinase domain, 50 uM ATP, 2 hours incubation; read-out: RIP1 Ki.
Type: biochemical
Method in brief: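 Ki^app comes from Morrison tight-binding fits of fractional activity versus compound concentration. Activity was read as ADP production, via tracer displacement lowering fluorescence polarization (633 nm laser). Conditions: 2 h, 50 nM insect-cell-expressed enzyme, 50 uM ATP, 30 mM MgCl2, 1 mM DTT, 0.5% DMSO, pH 7.5 Hepes.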

human RIP1 kinase domain (2-375), sequence (Q13546 2-375): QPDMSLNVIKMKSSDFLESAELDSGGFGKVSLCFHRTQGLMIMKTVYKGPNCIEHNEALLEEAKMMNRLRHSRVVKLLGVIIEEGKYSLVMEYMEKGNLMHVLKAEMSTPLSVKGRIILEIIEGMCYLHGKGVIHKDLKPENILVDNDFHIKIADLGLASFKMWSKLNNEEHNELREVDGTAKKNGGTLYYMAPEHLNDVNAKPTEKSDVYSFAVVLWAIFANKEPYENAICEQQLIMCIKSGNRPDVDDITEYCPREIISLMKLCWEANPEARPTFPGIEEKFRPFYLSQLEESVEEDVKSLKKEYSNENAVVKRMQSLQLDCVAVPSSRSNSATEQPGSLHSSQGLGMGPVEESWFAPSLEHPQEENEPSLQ

SMILES	pKi
CN1C(=O)[C@@H](NC(=O)c2ncn3ccc(C(F)(F)F)cc23)CCn2nccc21 [Example 75, (S)-N-(4-methyl-5-oxo-5,6,7,8-tetrahydro-4H-pyrazolo[1,5-a][1,3]diazepin-6-yl)-7-(trifluoromethyl)imidazo[1,5-a]pyridine-1-carboxamide]	6.64
O=C(N[C@H]1COc2ccccc2NC1=O)c1n[nH]c2c1C1CC1CC2 (stereo partly drawn) [Example 54, N-((S)-4-oxo-2,3,4,5-tetrahydrobenzo[b][1,4]oxazepin-3-yl)-3,4,5,5a,6,6a-hexahydrocyclopropa[e]indazole-1-carboxamide]	5.11
CN1C(=O)[C@@H](NC(=O)c2nnc(Cc3ccccc3)[nH]2)CCn2nc(C(F)(F)F)cc21 [Example 80, (S)-5-benzyl-N-(4-methyl-5-oxo-2-(trifluoromethyl)-5,6,7,8-tetrahydro-4H-pyrazolo[1,5-a][1,3]diazepin-6-yl)-4H-1,2,4-triazole-3-carboxamide]	7.19
CN1C(=O)[C@@H](NC(=O)c2ncn(Cc3ccccc3)n2)CCn2nccc21 [Example 73, (S)-1-benzyl-N-(4-methyl-5-oxo-5,6,7,8-tetrahydro-4H-pyrazolo[1,5-a][1,3]diazepin-6-yl)-1H-1,2,4-triazole-3-carboxamide]	7.57

Same assay, conditions: Table 5; apparent Ki (Morrison tight-binding fit); 50 nM RIP1 kinase domain, 50 uM ATP, 2 hours incubation; read-out: Ki

pKi	SMILES
7.18	CN1C(=O)[C@@H](NC(=O)c2cn(Cc3ccccc3)cn2)CCn2nccc21 (single isomer, unassigned) [Example 750]
6.83	CN1C(=O)[C@@H](NC(=O)c2nc3n(n2)[C@@H](c2ccccc2)CCC3)COc2ccccc21 (single isomer, unassigned) [Example 734]
6.74	Cc1ncc(-c2cc3n(n2)CCC(NC(=O)c2ncn(Cc4ccccc4)n2)C(=O)N3C)n1C (racemic) [Example 775, 1-benzyl-N-(2-(1,2-dimethyl-1H-imidazol-5-yl)-4-methyl-5-oxo-5,6,7,8-tetrahydro-4H-pyrazolo[1,5-a][1,3]diazepin-6-yl)-1H-1,2,4-triazole-3-carboxamide]
7.21	CN1C(=O)[C@@H](NC(=O)c2ncn(Cc3ccccc3)n2)CCn2nc(CO)cc21 (single isomer, unassigned) [Example 732]
7.23	CN1C(=O)[C@@H](NC(=O)c2ncn(Cc3ccccc3)n2)CCn2nc(CN3CCC(F)(F)C3)cc21 (single isomer, unassigned) [Example 727]
6.22	COCCNCc1cc2n(n1)CCC(NC(=O)c1ncn(Cc3ccccc3)n1)C(=O)N2C (single isomer, unassigned) [Example 780, 1-benzyl-N-(2-(((2-methoxyethyl)amino)methyl)-4-methyl-5-oxo-5,6,7,8-tetrahydro-4H-pyrazolo[1,5-a][1,3]diazepin-6-yl)-1H-1,2,4-triazole-3-carboxamide]

Same assay, conditions: human RIP1 kinase domain (2-375), 50 uM ATP, 2 hours incubation, Transcreener ADP assay; read-out: RIP1 Ki

pKi	SMILES
7.21	CN1C(=O)[C@@H](NC(=O)c2n[nH]c3c2CC(c2ccc(F)cc2F)OC3)COc2ccccc21 (stereo partly drawn) [Example 207, 5-(2,4-difluorophenyl)-N—((S)-5-methyl-4-oxo-2,3,4,5-tetrahydrobenzo[b][1,4]oxazepin-3-yl)-1,4,5,7-tetrahydropyrano[3,4-c]pyrazole-3-carboxamide]
5.85	CN1C(=O)[C@@H](NC(=O)c2nnc3ccc(C4CC4)cn23)COc2ccccc21 [Example 84, (S)-6-cyclopropyl-N-(5-methyl-4-oxo-2,3,4,5-tetrahydrobenzo[b][1,4]oxazepin-3-yl)-[1,2,4]triazolo[4,3-a]pyridine-3-carboxamide]
5.06	CN1C(=O)[C@@H](NC(=O)c2nnn3c2CC(c2ccccc2)C3)CCn2nccc21 (stereo partly drawn) [Example 121, N—((S)-4-methyl-5-oxo-5,6,7,8-tetrahydro-4H-pyrazolo[1,5-a][1,3]diazepin-6-yl)-5-phenyl-5,6-dihydro-4H-pyrrolo[1,2-c][1,2,3]triazole-3-carboxamide]
7.73	Cc1ccc2snc(C(=O)N[C@H]3COc4ccccc4N(C)C3=O)c2c1 [Example 90, (S)-5-methyl-N-(5-methyl-4-oxo-2,3,4,5-tetrahydrobenzo[b][1,4]oxazepin-3-yl)benzo[d]isothiazole-3-carboxamide]
7.16	Cc1cnn2c1N(C)C(=O)C(NC(=O)c1ncn(Cc3ccccc3)n1)CC2 (stereo not drawn) [Example 107, 1-benzyl-N-(3,4-dimethyl-5-oxo-5,6,7,8-tetrahydro-4H-pyrazolo[1,5-a][1,3]diazepin-6-yl)-1H-1,2,4-triazole-3-carboxamide]

Same assay, conditions: human RIP1 kinase domain (2-375), Transcreener ADP assay, 50 uM ATP, 2 hours incubation; read-out: RIP1 Ki

pKi	SMILES
8.07	CN1C(=O)[C@@H](NC(=O)c2ncn(Cc3ccc(Cl)cc3Cl)n2)CCn2nc(C3CC3)cc21 [Example 307, (S)—N-(2-cyclopropyl-4-methyl-5-oxo-5,6,7,8-tetrahydro-4H-pyrazolo[1,5-a][1,3]diazepin-6-yl)-1-(2,4-dichlorobenzyl)-1H-1,2,4-triazole-3-carboxamide]
7.82	Cc1cc2n(n1)CC[C@H](NC(=O)c1ncn(Cc3cc(F)ccc3F)n1)C(=O)N2C [Example 305, (S)-1-(2,5-difluorobenzyl)-N-(2,4-dimethyl-5-oxo-5,6,7,8-tetrahydro-4H-pyrazolo[1,5-a][1,3]diazepin-6-yl)-1H-1,2,4-triazole-3-carboxamide]
5.85	Cc1cc2n(n1)CC[C@H](NC(=O)c1cc3c(cn1)COC3(C)C1CC1)C(=O)N2C (stereo partly drawn) [Example 287, 1-cyclopropyl-N—((S)-2,4-dimethyl-5-oxo-5,6,7,8-tetrahydro-4H-pyrazolo[1,5-a][1,3]diazepin-6-yl)-1-methyl-1,3-dihydrofuro[3,4-c]pyridine-6-carboxamide]

Same assay, conditions: tight-binding apparent inhibition constant; human RIP1 kinase domain (2-375) 50 nM, 50 uM ATP, 2 hours; read-out: Ki

SMILES	pKi
CN1C(=O)[C@@H](NC(=O)c2ncn(CC3CCCCO3)n2)CCn2nc(C3CC3)cc21 (stereo partly drawn) [Example 477]	6.54
CN1C(=O)[C@@H](NC(=O)c2nc3cccc(C4=CCOCC4)n3n2)CCn2nccc21 [Example 395, (S)-5-(3,6-dihydro-2H-pyran-4-yl)-N-(4-methyl-5-oxo-5,6,7,8-tetrahydro-4H-pyrazolo[1,5-a][1,3]diazepin-6-yl)-[1,2,4]triazolo[1,5-a]pyridine-2-carboxamide]	6.98
O=C(N[C@H]1COc2cc(F)cc(F)c2NC1=O)c1nc2n(n1)[C@@H](C(F)(F)F)CCC2 (single isomer, unassigned) [Example 431]	6.36
CC[C@H]1CCCc2nc(C(=O)N[C@H]3COc4ccccc4N(C)C3=O)nn21 (racemic) [Example 403, (S)-5-ethyl-N—((S)-5-methyl-4-oxo-2,3,4,5-tetrahydrobenzo[b][1,4]oxazepin-3-yl)-5,6,7,8-tetrahydro-[1,2,4]triazolo[1,5-a]pyridine-2-carboxamide]	7.09
CN1C(=O)[C@@H](NC(=O)c2nc3n(n2)[C@@H](c2ccccc2)CC3)CCn2nccc21 (single isomer, unassigned) [Example 362]	6.05
Cc1cc2n(n1)CC[C@H](NC(=O)c1ncn(CC3CCOC3)n1)C(=O)N2C (stereo partly drawn) [Example 479, N-(6S)-2,4-dimethyl-5-oxo-7,8-dihydro-6H-pyrazolo[1,5-a][1,3]diazepin-6-yl-1-(tetrahydrofuran-3-ylmethyl)-1,2,4-triazole-3-carboxamide]	5.55
Cc1cc2n(n1)CC[C@H](NC(=O)c1ncn(CC3CC(C)C3)n1)C(=O)N2C (stereo in doubt) [Example 491, 1-[(3-methylcyclobutyl)methyl]-N-(6S)-2,4-dimethyl-5-oxo-7,8-dihydro-6H-pyrazol[1,5-a][1,3]diazepin-6-yl-1,2,4-triazole-3-carboxamide]	7.43
Cc1cc(F)c2c(c1)OC[C@H](NC(=O)c1nc3cccc(C(C)C)n3n1)C(=O)N2 [Example 423, (S)—N-(6-fluoro-8-methyl-4-oxo-2,3,4,5-tetrahydrobenzo[b][1,4]oxazepin-3-yl)-5-isopropyl-[1,2,4]triazolo[1,5-a]pyridine-2-carboxamide]	8.47

Other lines, results leading:

pKi	SMILES
6.74	Cc1cc2n(n1)CC[C@H](NC(=O)c1ncn(C[C@H]3C[C@@H](C(F)(F)F)C3)n1)C(=O)N2C [Example 492]
6.38	CN1C(=O)[C@@H](NC(=O)c2ncn(CC3CCC(F)(F)C3)n2)CCn2nc(C3CC3)cc21 (stereo partly drawn) [Example 594]
7.27	Cc1ncn2c1N(C)C(=O)[C@H](NC(=O)c1ncn(Cc3ccccc3F)n1)CC2 [Example 580, 1-[(2-fluorophenyl)methyl]-N-[(3R)-1,9-dimethyl-2-oxo-4,5-dihydro-3H-imidazo[1,5-a][1,3]diazepin-3-yl]-1,2,4-triazole-3-carboxamide]
7.67	CC[C@]1(C)OCc2cnc(C(=O)N[C@H]3COc4ccccc4N(C)C3=O)nc21 (racemic) [Example 685, rac-(7S)-7-ethyl-7-methyl-N-[rac-(3S)-5-methyl-4-oxo-2,3-dihydro-1,5-benzoxazepin-3-yl]-5H-furo[3,4-d] pyrimidine-2-carboxamide]
8.47	CN1C(=O)[C@@H](NC(=O)c2nc3n(n2)[C@@H](c2ccccc2)CC3)COc2ccccc21 [Example 623, (5R)-5-phenyl-N-[(3S)-5-methyl-4-oxo-2,3-dihydro-1,5-benzoxazepin-3-yl]-6,7-dihydro-5H-pyrrolo[1,2-b][1,2,4]triazole-2-carboxamide]
7.00	Cc1nc(C)n2c1N(C)C(=O)[C@H](NC(=O)c1ncn(Cc3ccccc3F)n1)CC2 [Example 596, 1-[(2-fluorophenyl)methyl]-N-(3R)-1,7,9-trimethyl-2-oxo-4,5-dihydro-3H-imidazo[1,5-a][1,3]diazepin-3-yl-1,2,4-triazole-3-carboxamide]
6.89	Cc1ncc2n1CCC(NC(=O)c1ncn(Cc3ccccc3)n1)C(=O)N2C (racemic) [Example 557, 1-benzyl-N-(1,7-dimethyl-2-oxo-4,5-dihydro-3H-imidazo[1,5-a][1,3]diazepin-3-yl)-1,2,4-triazole-3-carboxamide]

Reference: patent publication US10988459B2 (priority 2015, dated 2021)
